According to publication PMC7140460, “Fluorinated Galactoses Inhibit Galactose-1-Phosphate Uridyltransferase and Metabolically Induce Galactosemia-like Phenotypes in HEK-293 Cells” (Cells, 2020):

Biological target: T1, recombinant hGALT (human galactose-1-phosphate uridyltransferase) (Homo sapiens, UniProt P07902)
T1 construct: gene GALT; synthetic gene in pET-15b (NdeI-BamHI, insert 1149 bp), His-tagged, E. coli BL21(DE3)-RIPL, Ni-NTA purified; tag removal not mentioned
Test: coupled PGM/G6PDH assay, NADPH absorbance at […] nm
Format: biochemical

T1 sequence (P07902 whole entry): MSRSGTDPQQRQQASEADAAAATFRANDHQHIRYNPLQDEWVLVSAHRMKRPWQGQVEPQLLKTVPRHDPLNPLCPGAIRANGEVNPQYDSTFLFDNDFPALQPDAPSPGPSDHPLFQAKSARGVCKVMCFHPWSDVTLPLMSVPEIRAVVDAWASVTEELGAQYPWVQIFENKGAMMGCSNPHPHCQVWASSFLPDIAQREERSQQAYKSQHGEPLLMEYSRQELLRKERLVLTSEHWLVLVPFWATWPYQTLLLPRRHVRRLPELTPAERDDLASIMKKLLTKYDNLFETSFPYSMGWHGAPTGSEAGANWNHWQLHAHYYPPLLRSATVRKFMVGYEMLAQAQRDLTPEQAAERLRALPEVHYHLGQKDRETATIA

`O=P(O)(O)O[C@H]1O[C@H](CO)[C@H](O)[C@H](O)[C@H]1F` [F-Gal-1-P, 2-fluoro-2-deoxy-galactose-1-phosphate] was tested, and the Ki was 900 µM.
